Experimental data published in article PMC9852841, “Expanding the toolbox of metabolically stable lipid prodrug strategies” (Frontiers in Pharmacology, 2023).
Read-outs that look alike come from different tables or passages of the source.

Key:
[1] = Metabolic stability in human liver microsomes; settings: for HLM t1/2 / HLM stability (in words): human liver microsomes; for HLM t1/2 / half-life at 3 µM: 3 μM prodrug, NADPH, 0-120 min; for half-life at 3 µM / microsomal CLint at 3 µM: human, microsomes; for half-life at 3 µM: pH 7.4, HLM t1/2, human liver microsomes; for microsomal CLint at 3 µM: pH 7.4
[2] = test system: VSV pseudotype HIV-like viral particles; test: organism not typed; assay type: cell-based; settings: for IC50: read-out: HIV IC50
[3] = in vitro; settings: human, microsomes, pH 7.4
[4] = test system: VSV pseudotype HIV-like viral particles; parameters: method as in Pribut et al., 2021; settings: preliminary pseudoviral assay results; ref Pribut et al., 2021; cited from earlier work
[5] = Cytotoxicity assay (cell viability, CellTiter 96 or resazurin); settings: human, HEK293T cells
[6] = Solubility observations (aqueous, HSA formulations, growth media); assay type: physicochemical; settings: observational, relative to TXL
[7] = dogs, single TAF dose
[8] = dogs, single TAF dose, cited from earlier work

| SMILES | HLM t1/2 [1] | IC50 ([2]; HEK-293T, 48 h) | microsomal CLint at 3 µM [1] | other results |
| --- | --- | --- | --- | --- |
| CCCCCCCCCCCCCCCCOCCCOP(=O)(O)CO[C@H](C)Cn1cnc2c(N)ncnc21 [TXL, tenofovir Exalidex, reference compound] | 41.6 min | 18 nM | – | half-life at 3 µM [1]: 42 min; microsomal CLint [3]: 16.7 µL/min/mg |
| CCCCOCCCCCOCCCCCOCCCOP(=O)(O)CO[C@H](C)Cn1cnc2c(N)ncnc21.N [Compound 10, Ammonium [(1R)-2-(6-aminopurin-9-yl)-1-methyl-ethoxy]methyl-[3-[5-(5-butoxypentoxy)pentoxy]propoxy]phosphinate] | – | > 32000 nM | – | antiviral activity (in words) [2]: completely abrogated antiviral activity; loss of antiviral activity [2]: > 1,800 fold |
| CCCCCCCCCCCCCCCCCCCCOP(=O)(O)COC(C)Cn1cnc2c(N)ncnc21 (centres unmarked) [arachidyl TFV] | – | – | – | IC50 [4]: 127 nM |
| COCCOCCOCCOCCOP(=O)(O)CO[C@H](C)Cn1cnc2c(N)ncnc21.N [Compound 13, Ammonium [(1R)-2-(6-aminopurin-9-yl)-1-methyl-ethoxy]methyl-[2-[2-[2-(2-methoxyethoxy)ethoxy]ethoxy]ethoxy]phosphinate] | – | 26700 nM | – | CC50 at 48 h [5]: > 100000 nM; aqueous solubility (in words) [6]: observationally increased aqueous solubility; IC50 [2]: 23400 nM |
| C[C@H](Cn1cnc2c(N)ncnc21)OCP(=O)(O)OCCOCCCCCCCCCCCCc1ccc(S(F)(F)(F)(F)F)cc1.N [Compound 42, Ammonium [(1R)-2-(6-aminopurin-9-yl)-1-methyl-ethoxy]methyl-[2-[12-[4-(pentafluorosulfanyl)phenyl]dodecoxy]ethoxy]phosphinate] | >120 min | 25.4 nM | < 5.78 µL/min/mg | – |
| C[C@H](Cn1cnc2c(N)ncnc21)OCP(=O)(O)OCCOCCCCCCCCCCCCCCC#CC(F)(F)F.N [Compound 33, Ammonium 2-((17,17,17-trifluoroheptadec-15-yn-1-yl)oxy)ethyl (R)-(((1-(6-amino-9h-purin-9-yl)propan-2-yl)oxy)methyl)phosphonate] | >120 min | 10.6 nM | < 5.78 µL/min/mg | – |
| C[C@H](Cn1cnc2c(N)ncnc21)OCP(=O)(O)OCCOCCCCCCCCCCC#Cc1ccc(S(F)(F)(F)(F)F)cc1.N [Compound 40, Ammonium [(1R)-2-(6-aminopurin-9-yl)-1-methyl-ethoxy]methyl-[2-[12-[4-(pentafluorosulfanyl)phenyl]dodec-11-ynoxy]ethoxy]phosphinate] | >120 min | 14.6 nM | < 5.78 µL/min/mg | – |
| CCCCCCCCOCCCCCOCCCCCOP(=O)(O)CO[C@H](C)Cn1cnc2c(N)ncnc21.N [Compound 11, Ammonium 5-(5-octoxypentoxy)pentoxy-[[(1R)-2-(6-aminopurin-9-yl)-1-methyl-ethoxy]methyl]phosphinate] | 12 min | 4050 nM | 58.6 µL/min/mg | HLM stability (in words) [1]: less stable in HLM relative to TXL; half-life at 3 µM [1]: 11.8 min; antiviral activity (in words) [2]: low μM range; decay of antiviral activity with inclusion of the second oxygen atom [2]: 78 fold |
| CCCCCCCCCCCCCCCOCCCCOP(=O)(O)CO[C@H](C)Cn1cnc2c(N)ncnc21.N [Compound 19, Ammonium 4-pentadecoxybutoxy-[[(1R)-2-(6-aminopurin-9-yl)-1-methyl-ethoxy]methyl]phosphinate] | 48 min | 30 nM | 14.4 µL/min/mg | – |
| C[C@H](Cn1cnc2c(N)ncnc21)OCP(=O)(O)OCCOCCCCCCCCCCCCCC#CC(F)(F)F.N [Compound 32, Ammonium 2-((16,16,16-trifluorohexadec-14-yn-1-yl)oxy)ethyl (R)-(((1-(6-amino-9h-purin-9-yl)propan-2-yl)oxy)methyl)phosphonate] | >120 min | 16 nM | < 5.78 µL/min/mg | – |
| CCCCCCCCCCCCCCCCCCOCCOP(=O)(O)CO[C@H](C)Cn1cnc2c(N)ncnc21.N [Compound 21, Ammonium 2-octadecoxyethoxy-[[(1R)-2-(6-aminopurin-9-yl)-1-methyl-ethoxy]methyl]phosphinate] | 105 min | 3 nM | 6.6 µL/min/mg | HLM stability (in words) [1]: improved stability in HLM |
| CCCCCCCCCCCCCCCCCOCCOP(=O)(O)CO[C@H](C)Cn1cnc2c(N)ncnc21.N [Compound 18, Ammonium 2-heptadecoxyethoxy-[[(1R)-2-(6-aminopurin-9-yl)-1-methyl-ethoxy]methyl]phosphinate] | 35 min | 3 nM | 19.8 µL/min/mg | half-life at 3 µM [1]: 34.9 min; boost in potency relative to analogue 20 [2]: 17 fold |
| C[C@H](Cn1cnc2c(N)ncnc21)OCP(=O)(O)OCCOCCCCCCCCCCCCCCCC(F)(F)F.N [Compound 36, Ammonium 2-((16,16,16-trifluorohexadecyl)oxy)ethyl (R)-(((1-(6-amino-9H-purin-9-yl)propan-2-yl)oxy)methyl)phosphonate] | >120 min | 8.8 nM | < 5.78 µL/min/mg | – |
| CCCCCCCCCCCCCCOCCCCCOP(=O)(O)CO[C@H](C)Cn1cnc2c(N)ncnc21.N [Compound 20, Ammonium [(1R)-2-(6-aminopurin-9-yl)-1-methyl-ethoxy]methyl-(5-tetradecoxypentoxy)phosphinate] | 31 min | 52 nM | 22.5 µL/min/mg | half-life at 3 µM [1]: 30.9 min |
| COCCOCCOCCOCCOCCOCCOP(=O)(O)CO[C@H](C)Cn1cnc2c(N)ncnc21.N [Compound 12, Ammonium 2,5,8,11,14,17-hexaoxanonadecan-19-yl (R)-(((1-(6-amino-9H-purin-9-yl)propan-2-yl)oxy)methyl)phosphonate] | – | 31200 nM | – | CC50 at 48 h [5]: > 100000 nM; aqueous solubility (in words) [6]: observationally increased aqueous solubility; IC50 [2]: 34600 nM |
| CC(C)OC(=O)[C@H](C)N[P@](=O)(CO[C@H](C)Cn1cnc2c(N)ncnc21)Oc1ccccc1 [TAF, tenofovir alafenamide] | – | – | – | fraction of dose remaining available to access HIV-infected cells [7]: 18%; fraction of dose sequestered for toxic side effects [7]: 82%; fraction of dose extracted by the liver ([8]; ref Babusis et al., 2013): 65%; fraction of a single dose converted to plasma TFV ([8]; ref Lee et al., 2005): 17% |
| C[C@H](Cn1cnc2c(N)ncnc21)OCP(=O)(O)OCCOCCCCCCCCCCCCCCCCC(F)(F)F.N [Compound 37, Ammonium 2-((17,17,17-trifluoroheptadecyl)oxy)ethyl (R)-(((1-(6-amino-9h-purin-9-yl)propan-2-yl)oxy)methyl)phosphonate] | >120 min | 12.6 nM | < 5.78 µL/min/mg | – |
| COCCOCCOP(=O)(O)CO[C@H](C)Cn1cnc2c(N)ncnc21.N [Compound 14, Ammonium [(1R)-2-(6-aminopurin-9-yl)-1-methyl-ethoxy]methyl-[2-(2-methoxyethoxy)ethoxy]phosphinate] | – | 21400 nM | – | CC50 at 48 h [5]: > 100000 nM; aqueous solubility (in words) [6]: observationally increased aqueous solubility; IC50 [2]: 19400 nM |
